Literature values, collected in patent publication US4878891A, “Method for eradicating infectious biological contaminants in body tissues” (Baylor Research Foundation, priority 1987, dated 1989).

How the values were obtained:
tumor = details: injected; several types of tumor induced in mice
malignant tumors = details: patients given large doses; ultraviolet light
[1] = system: cutaneous T-cell lymphoma; details: oral; blood fraction exposed to ultraviolet A

Cc1cn([C@H]2C[C@H](N=[N+]=[N-])[C@@H](CO)O2)c(=O)[nH]c1=O [3-deoxy-3'-azidothymidine (AZT), 3-deoxy-3'-azidothymidine]
preventing the proliferation of tumor cells (tumor cells): totally ineffective

CC1=C(CCC(=O)O)c2cc3[nH]c(cc4nc(cc5[nH]c(cc1n2)c(C)c5C(C)O)C(C)=C4C(C)O)c(C)c3CCC(=O)O (centres unmarked) [hematoporphyrin]
localization in tumors (tumor): localized and fluoresced in several types of tumor | red fluorescence in malignant tumors (malignant tumors): red fluorescence

COc1c2occc2cc2ccc(=O)oc12 [8-methoxypsoralen]
control of cutaneous T-cell lymphoma activity [1]: could be controlled

CC[C@]1(O)C[C@H]2CN(CCc3c([nH]c4ccccc34)[C@@](C(=O)OC)(c3cc4c(cc3OC)N(C=O)[C@H]3[C@@](O)(C(=O)OC)[C@H](OC(C)=O)[C@]5(CC)C=CCN6CC[C@]43[C@@H]65)C2)C1 [Vincristine]
treatment of viral diseases (viral diseases): ineffective
